In EP0994109A2, “1-(3-(1-Pyrrolidinyl)propyl)-3-ethylcarbodiimide and a solid phase coupling agent” (ELI LILLY AND COMPANY, priority 1995, dated 1997):
Where a name gives a salt, the structure may show the parent alone.

System: neuronal protein extravasation
Experiment: Protein extravasation in dura after electrical stimulation of the trigeminal ganglion
Format: in vivo, rats or guinea pigs
Settings: dose that inhibited the extravasation by 50%, approximated from dose-response curve
Procedure: Harlan Sprague-Dawley rats (225-325 g) or guinea pigs from Charles River Laboratories (225-325 g) were anesthetized with sodium pentobarbital intraperitoneally (65 mg/kg or 45 mg/kg respectively) and placed in a stereotaxic frame (David Kopf Instruments) with the incisor bar set at -3.5 mm for rats or -4.0 mm for guinea pigs. Following a midline sagital scalp incision, two pairs of bilateral holes were drilled through the skull (6 mm posteriorly, 2.0 and 4.0 mm laterally in rats; 4 mm posteriorly and 3.2 and 5.2 mm laterally in guinea pigs, all coordinates referenced to bregma). Pairs of stainless steel stimulating electrodes (Rhodes Medical Systems, Inc.) were lowered through the holes in both hemispheres to a depth of 9 mm (rats) or 10.5 mm (guinea pigs) from dura.
The femoral vein was exposed and a dose of the test compound was injected intravenously (1 mL/kg). Approximately 7 minutes later, a 50 mg/kg dose of Evans Blue, a fluorescent dye, was also injected intravenously. The Evans Blue complexed with proteins in the blood and functioned as a marker for protein extravasation. Exactly 10 minutes post-injection of the test compound, the left trigeminal ganglion was stimulated for 3 minutes at a current intensity of 1.0 mA (5 Hz, 4 msec duration) with a Model 273 potentiostat/ galvanostat (EG&G Princeton Applied Research).
Fifteen minutes following stimulation, the animals were killed and exsanguinated with 20 mL of saline. The top of the skull was removed to facilitate the collection of the dural membranes. The membrane samples were removed from both hemispheres, rinsed with water, and spread flat on microscopic slides. Once dried, the tissues were coverslipped with a 70% glycerol/water solution.
A fluorescence microscope (Zeiss) equipped with a grating monochromator and a spectrophotometer was used to quantify the amount of Evans Blue dye in each sample. An excitation wavelength of approximately 535 nm was utilized and the emission intensity at 600 nm was determined. The microscope was equipped with a motorized stage and also interfaced with a personal computer. This facilitated the computer-controlled movement of the stage with fluorescence measurements at 25 points (500 µm steps) on each dural sample. The mean and standard deviation of the measurements was determined by the computer.
The extravasation induced by the electrical stimulation of the trigeminal ganglion was an ipsilateral effect (i.e. occurs only on the side of the dura in which the trigeminal ganglion was stimulated). This allows the other (unstimulated) half of the dura to be used as a control. The ratio of the amount of extravasation in the dura from the stimulated side compared to the unstimulated side dura was calculated. Saline controls yielded a ratio of approximately 2.0 in rats and 1.8 in guinea pigs. […]

First: O=C(O)C(=O)O.Oc1ccc2[nH]cc(C3CCNCC3)c2c1 [Compound III, 5-hydroxy-3-(4-piperidinyl)-1H-indole oxalate]
Second: Cn1cc(CCN2CCC(c3c[nH]c4ccc(F)cc34)CC2)cn1 [Compound II, 5-fluoro-3-<1-<2-<1-methyl-1H-pyrazol-4-yl>ethyl>-4-piperidinyl>-1H-indole hydrochloride]
The “i.v. ID50” value of the first is higher: 8.9e-09 mmol/kg for the first, 8.6e-10 mmol/kg for the second.

Compared with CNS(=O)(=O)Cc1ccc2[nH]cc(CCN(C)C)c2c1.O=C(O)CCC(=O)O [Compound I, 3-[2-(dimethylamino)ethyl]-N-methyl-1H-indole-5-methanesulfonamide butane-1,4-dioate (1:1)], CN(C)C1CCc2[nH]c3ccc(O)cc3c2C1 (centres unmarked) [Compound V, 6-hydroxy-3-dimethylamino-1,2,3,4-tetrahydrocarbazole] is lower in “i.v. ID50” value: 2.6e-08 mmol/kg for the first, 8.7e-09 mmol/kg for the second.

CCN(CC)C1CCc2cccc(Cl)c2C1.Cl (centres unmarked) [Compound IV, 8-chloro-2-diethylamino-1,2,3,4-tetrahydronaphthalene hydrochloride] was tested, and the “i.v. ID50” value was 1.2e-07 mmol/kg.
